From US20260125382A1, “COMPOUNDS FOR INHIBITING OR DEGRADING CDK2 AND/OR CDK9 AND MEDICINAL USE THEREOF” (KOREA RESEARCH INSTITUTE OF CHEMICAL TECHNOLOGY, priority 2022, published 2026)

Key:
[1] = molecular target: T1, CDK2 (Homo sapiens, UniProt P24941); assay: CDK protein degradation activity (Western blotting), CDK2; format: cell-based; conditions: MDA-MB-231 cells, 16 hours, Western blot
T1 construct: endogenous in cells; host or cells: MDA-MB-231
Summary of the method: (§1)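 MDA-MB-231 cells treated 16 h with compound at 100 nM, 1 μM or 10 μM, with DMSO as control. Lysates run on SDS-PAGE and immunoblotted for CDK2, CDK9 and tubulin; band levels quantified by densitometry.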

[2] = molecular target: T2, CDK9 (Homo sapiens, UniProt P50750); assay: CDK protein degradation activity (Western blotting), CDK9; format: cell-based; conditions: MDA-MB-231 cells, 16 hours, Western blot
T2 construct: endogenous in cells; host or cells: MDA-MB-231
Summary of the method: as §1

T2 sequence (P50750 whole entry): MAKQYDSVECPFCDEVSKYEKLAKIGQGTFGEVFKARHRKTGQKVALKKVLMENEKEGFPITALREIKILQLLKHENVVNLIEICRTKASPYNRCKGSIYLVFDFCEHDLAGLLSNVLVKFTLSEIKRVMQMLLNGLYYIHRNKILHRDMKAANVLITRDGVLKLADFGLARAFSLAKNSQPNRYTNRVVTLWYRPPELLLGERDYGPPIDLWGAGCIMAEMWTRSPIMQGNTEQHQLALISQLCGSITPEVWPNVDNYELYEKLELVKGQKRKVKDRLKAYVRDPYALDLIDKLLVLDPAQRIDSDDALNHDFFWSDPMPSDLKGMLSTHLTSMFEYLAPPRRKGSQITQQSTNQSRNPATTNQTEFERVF

| Structure (SMILES) | Enzyme degradation CDK2 (% remaining) @ 0.1 μM [1] | Enzyme degradation CDK2 (% remaining) @ 1 μM [1] | Enzyme degradation CDK2 (% remaining) @ 10 μM [1] | Enzyme degradation CDK9 (% remaining) @ 0.1 μM [2] | Enzyme degradation CDK9 (% remaining) @ 1 μM [2] | Enzyme degradation CDK9 (% remaining) @ 10 μM [2] |
| --- | --- | --- | --- | --- | --- | --- |
| O=C1CC[C@H](N2C(=O)c3cc(F)c(N4CCN(CCCC5CCN(c6ccc(Nc7ncnc8c7ncn8[C@H]7C[C@@H](NC(=O)Cc8ccccc8)C7)cc6)CC5)CC4)cc3C2=O)C(=O)N1 [Compound 348, N-((1s,3s)-3-(6-((4-(4-(3-(4-(2-(2,6-dioxopiperidin-3-yl)-6-fluoro-1,3-dioxoisoindolin-5-yl)piperazin-1-yl)propyl)piperidin-1-yl)phenyl)amino)-9H-purin-9-yl)cyclobutyl)-2-phenylacetamide] | 30% | 10% | 10% | 80% | 20% | 0% |
| O=C1CC[C@H](n2nnc3ccc(N4CCN(CCCC5CCN(c6ccc(Nc7ncnc8c7ncn8C7CC(NC(=O)Cc8ccccc8)C7)cc6)CC5)CC4)cc3c2=O)C(=O)N1 (stereo partly drawn) [Compound 349, N-((1s,3s)-3-(6-((4-(4-(3-(4-(3-(2,6-dioxopiperidin-3-yl)-4-oxo-3,4-dihydrobenzo[d][1,2,3]triazin-6-yl)piperazin-1-yl)propyl)piperidin-1-yl)phenyl)amino)-9H-purin-9-yl)cyclobutyl)-2-phenylacetamide] | 0/0/0% | 0/0/0% | 0/0/0% | 30% | 20% | 20% |
| O=C1CCC(N2C(=O)c3ccc(N4CCC(C(=O)N5CC(N6CCN(c7ccc(Nc8ncnc9c8ncn9[C@H]8C[C@@H](NC(=O)Cc9ccccc9)C8)cc7)CC6)C5)CC4)cc3C2=O)C(=O)N1 (stereo partly drawn) [Compound 350, N-((1s,3s)-3-(6-((4-(4-(1-(1-(2-(2,6-dioxopiperidin-3-yl)-1,3-dioxoisoindolin-5-yl)piperidin-4-carbonyl)azetidin-3-yl)piperazin-1-yl)phenyl)amino)-9H-purin-9-yl)cyclobutyl)-2-phenylacetamide] | 30/30/30% | 30/30/30% | 30/30/30% | 50% | 30% | 30% |
| O=C1CC[C@H](n2nnc3ccc(N4CCC(CCCN5CCN(c6ccc(Nc7ncnc8c7ncn8C7CC(NC(=O)Cc8ccccc8)C7)cc6)CC5)CC4)cc3c2=O)C(=O)N1 (stereo partly drawn) [Compound 351, N-((1s,3s)-3-(6-((4-(4-(3-(1-(3-(2,6-dioxopiperidin-3-yl)-4-oxo-3,4-dihydrobenzo[d][1,2,3]triazin-6-yl)piperidin-4-yl)propyl)piperazin-1-yl)phenyl)amino)-9H-purin-9-yl)cyclobutyl)-2-phenylacetamide] | 20% | 10% | 10% | 10/10/10% | 10/10/10% | 10/10/10% |
| O=C1CC[C@H](N2C(=O)c3ccc(N4CC(C(=O)N5CCC6(CC5)CC(N5CCN(c7ccc(Nc8ncnc9c8ncn9[C@H]8C[C@@H](NC(=O)Cc9ccccc9)C8)cc7)CC5)C6)C4)cc3C2=O)C(=O)N1 [Compound 352, N-((1s,3s)-3-(6-((4-(4-(7-(1-(2-(2,6-dioxopiperidin-3-yl)-1,3-dioxoisoindolin-5-yl)azetidin-3-carbonyl)-7-azaspiro[3.5]nonan-2-yl)piperazin-1-yl)phenyl)amino)-9H-purin-9-yl)cyclobutyl)-2-phenylacetamide] | 90% | 70% | 70% | 20/20/20% | 20/20/20% | 20/20/20% |
| O=C1CC[C@H](N2C(=O)c3ccc(N4CCC(C(=O)N5CCC6(CC5)CC(N5CCN(c7ccc(Nc8ncnc9c8ncn9C8CC(NC(=O)Cc9ccccc9)C8)cc7)CC5)C6)CC4)cc3C2=O)C(=O)N1 (stereo partly drawn) [Compound 353, N-((1s,3s)-3-(6-((4-(4-(7-(1-(2-(2,6-dioxopiperidin-3-yl)-1,3-dioxoisoindolin-5-yl)piperidin-4-carbonyl)-7-azaspiro[3.5]nonan-2-yl)piperazin-1-yl)phenyl)amino)-9H-purin-9-yl)cyclobutyl)-2-phenylacetamide] | 70% | 40% | 40% | 10/10/10% | 10/10/10% | 10/10/10% |
| O=C1CC[C@H](N2C(=O)c3ccc(N4CCC(C(=O)N5CCC(CCCN6CCN(c7ccc(Nc8ncnc9c8ncn9C8CC(NC(=O)Cc9ccccc9)C8)cc7)CC6)CC5)CC4)cc3C2=O)C(=O)N1 (stereo partly drawn) [Compound 354, N-((1s,3s)-3-(6-((4-(4-(3-(1-(1-(2-(2,6-dioxopiperidin-3-yl)-1,3-dioxoisoindolin-5-yl)piperidin-4-carbonyl)piperidin-4-yl)propyl)piperazin-1-yl)phenyl)amino)-9H-purin-9-yl)cyclobutyl)-2-phenylacetamide] | 50% | 50% | 60% | 10/10/10% | 10/10/10% | 10/10/10% |
| Cc1cccc(C(=O)NC2CC(n3cnc4c(NCCC5CCN(CC6CCN(C(=O)C7CCN(c8ccc9c(c8)C(=O)N([C@H]8CCC(=O)NC8=O)C9=O)CC7)CC6)CC5)ncnc43)C2)n1 (stereo partly drawn) [Compound 355, N-((1s,3s)-3-(6-((2-(1-((1-(1-(2-(2,6-dioxopiperidin-3-yl)-1,3-dioxoisoindolin-5-yl)piperidin-4-carbonyl)piperidin-4-yl)methyl)piperidin-4-yl)ethyl)amino)-9H-purin-9-yl)cyclobutyl)-6-methylpicolinamide] | 70% | 60% | 60% | 10% | 0% | 0% |
| O=C1CC[C@H](n2nnc3ccc(N4CCN(C5CCN(c6ccc(Nc7ncnc8c7ncn8C7CC(NC(=O)Cc8ccccc8)C7)cc6)CC5)CC4)cc3c2=O)C(=O)N1 (stereo partly drawn) [Compound 357, N-((1s,3s)-3-(6-((4-(4-(4-(3-(2,6-dioxopiperidin-3-yl)-4-oxo-3,4-dihydrobenzo[d][1,2,3]triazin-6-yl)piperazin-1-yl)piperidin-1-yl)phenyl)amino)-9H-purin-9-yl)cyclobutyl)-2-phenylacetamide] | 70% | 20% | 20% | 80% | 30% | 30% |
| O=C1CC[C@H](N2C(=O)c3ccc(N4CCC(C(=O)N5CCN(C6CC7(CCN(c8ccc(Nc9ncnc%10c9ncn%10[C@H]9C[C@@H](NC(=O)Cc%10ccccc%10)C9)cc8)CC7)C6)CC5)CC4)cc3C2=O)C(=O)N1 [Compound 361, N-((1s,3s)-3-(6-((4-(2-(4-(1-(2-(2,6-dioxopiperidin-3-yl)-1,3-dioxoisoindolin-5-yl)piperidin-4-carbonyl)piperazin-1-yl)-7-azaspiro[3.5]nonan-7-yl)phenyl)amino)-9H-purin-9-yl)cyclobutyl)-2-phenylacetamide] | 20% | 10% | 10% | 50% | 10% | 10% |
| O=C1CC[C@H](N2C(=O)c3ccc(N4CC(C(=O)N5CCN(CCC6CCN(c7ccc(Nc8ncnc9c8ncn9[C@H]8C[C@@H](NC(=O)Cc9ccccc9)C8)cc7)CC6)CC5)C4)cc3C2=O)C(=O)N1 [Compound 362, N-((1s,3s)-3-(6-((4-(4-(2-(4-(1-(2-(2,6-dioxopiperidin-3-yl)-1,3-dioxoisoindolin-5-yl)azetidin-3-carbonyl)piperazin-1-yl)ethyl)piperidin-1-yl)phenyl)amino)-9H-purin-9-yl)cyclobutyl)-2-phenylacetamide] | 90% | 80% | 70% | 40% | 0% | 0% |
| O=C1CC[C@H](N2C(=O)c3ccc(N4CCC(C(=O)N5CCN(CCC6CCN(c7ccc(Nc8ncnc9c8ncn9[C@H]8C[C@@H](NC(=O)Cc9ccccc9)C8)cc7)CC6)CC5)CC4)cc3C2=O)C(=O)N1 [Compound 363, N-((1s,3s)-3-(6-((4-(4-(2-(4-(1-(2-(2,6-dioxopiperidin-3-yl)-1,3-dioxoisoindolin-5-yl)piperidin-4-carbonyl)piperazin-1-yl)ethyl)piperidin-1-yl)phenyl)amino)-9H-purin-9-yl)cyclobutyl)-2-phenylacetamide] | 100% | 50% | 30% | 40% | 0% | 0% |
